Measured values taken from patent US20210395239A1 (Hoffmann-La Roche Inc., priority 2018, published 2021).

Target: T1, human TLR8 (Homo sapiens, UniProt Q9NR97)
T1 construct: host or cells: HEK293 (HEK-Blue hTLR8)
T1 sequence (Q9NR97 27-1041): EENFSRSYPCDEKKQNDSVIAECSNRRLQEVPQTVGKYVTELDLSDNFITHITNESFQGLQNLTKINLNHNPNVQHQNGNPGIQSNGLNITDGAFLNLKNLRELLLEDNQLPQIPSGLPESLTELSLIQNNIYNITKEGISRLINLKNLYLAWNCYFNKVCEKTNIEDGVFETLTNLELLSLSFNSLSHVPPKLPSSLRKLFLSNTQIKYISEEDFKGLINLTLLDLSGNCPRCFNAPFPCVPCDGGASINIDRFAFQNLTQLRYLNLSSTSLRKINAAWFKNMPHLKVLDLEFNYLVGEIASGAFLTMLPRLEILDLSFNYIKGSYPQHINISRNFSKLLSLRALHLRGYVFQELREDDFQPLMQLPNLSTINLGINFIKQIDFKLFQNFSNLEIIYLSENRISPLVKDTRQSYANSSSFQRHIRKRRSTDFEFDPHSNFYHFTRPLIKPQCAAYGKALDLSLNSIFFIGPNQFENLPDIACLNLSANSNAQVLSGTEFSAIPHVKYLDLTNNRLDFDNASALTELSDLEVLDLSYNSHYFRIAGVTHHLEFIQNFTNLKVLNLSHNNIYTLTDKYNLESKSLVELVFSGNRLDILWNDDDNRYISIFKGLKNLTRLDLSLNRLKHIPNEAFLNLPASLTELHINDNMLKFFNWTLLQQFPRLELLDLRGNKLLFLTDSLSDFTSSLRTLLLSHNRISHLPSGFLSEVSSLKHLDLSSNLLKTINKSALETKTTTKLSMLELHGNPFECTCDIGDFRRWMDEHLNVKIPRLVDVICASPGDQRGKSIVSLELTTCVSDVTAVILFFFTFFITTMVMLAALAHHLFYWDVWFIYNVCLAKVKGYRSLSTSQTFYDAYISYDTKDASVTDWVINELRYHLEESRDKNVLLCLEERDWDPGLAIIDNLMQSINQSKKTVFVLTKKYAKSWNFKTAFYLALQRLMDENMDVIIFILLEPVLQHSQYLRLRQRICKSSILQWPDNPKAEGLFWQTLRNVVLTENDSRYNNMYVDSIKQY
Experiment: HEK293-Blue-hTLR-8 cells assay (SEAP reporter, R848 stimulation)
Type: cell-based
Conditions: HEK293-Blue-hTLR8 cells, R848, 20 hrs; read-out: HEK/hTLR8 IC50
From the text: HEK293-Blue-hTLR-8 Cells Assay:
A stable HEK293-Blue-hTLR-8 cell line was purchased from InvivoGen (Cat. #: hkb-ht1r8, San Diego, Calif., USA). These cells were originally designed for studying the stimulation of human TLR8 by monitoring the activation of NF-κB. A SEAP (secreted embryonic alkaline phosphatase) reporter gene was placed under the control of the IFN-β minimal promoter fused to five NF-κB and AP-1-binding sites. The SEAP was induced by activating NF-κB and AP-1 via stimulating HEK-Blue hTLR8 cells with TLR8 ligands. Therefore the reporter expression was declined by TLR8 antagonist under the stimulation of a ligand, such as R848, for incubation of 20 hrs. The cell culture supernatant SEAP reporter activity was determined using QUANTI-Blue™ kit (Cat. #: rep-qb1, Invivogen, San Diego, Ca, USA) at a wavelength of 640 nm, a detection medium that turns purple or blue in the presence of alkaline phosphatase.
HEK293-Blue-hTLR8 cells were incubated at a density of 250,000˜450,000 cells/mL in a volume of 170 μL in a 96-well plate in Dulbecco's Modified Eagle's medium (DMEM) containing 4.5 g/L glucose, 50 U/mL penicillin, […], […], 2 mM L-glutamine, 10% (v/v) heat-inactivated fetal bovine serum with addition of 20 μL test compound in a serial dilution in the presence of final DMSO at 1% and 10 μL of 60 uM R848 in above DMEM, perform incubation under 37° C. in a CO2 incubator for 20 hrs. Then 20 μL of the supernatant from each well was incubated with 180 μL Quanti-blue substrate solution at 37° C. for 2 hrs and the absorbance was read at 620˜655 nm using a spectrophotometer. The signaling pathway that TLR8 activation leads to downstream NF-κB activation has been widely accepted, and therefore similar reporter assay was modified for evaluating TLR8 antagonist.

Row | SMILES | IC50
1 | [2H]c1nc2c(C#N)ccc(N3C[C@H](CN4CCN(c5nc(C)cc(N6CC(N)C6)n5)CC4)O[C@H](C)C3)c2nc1[2H] [Example 124, 8-[(2S,6R)-2-[[4-[4-(3-aminoazetidin-1-yl)-6-methyl-pyrimidin-2-yl]piperazin-1-yl]methyl]-6-methyl-morpholin-4-yl]-2,3-dideuterio-quinoxaline-5-carbonitrile] | 1 nM
2 | Cc1cc(N2C[C@@H](N)[C@](C)(O)C2)nc(N2CCN(C[C@H]3CN(c4ccc(C#N)c5nccnc45)C[C@@H](C)O3)CC2)n1 [Example 125, 8-[(2S,6R)-2-[[4-[4-[(3R,4R)-4-amino-3-hydroxy-3-methyl-pyrrolidin-1-yl]-6-methyl-pyrimidin-2-yl]piperazin-1-yl]methyl]-6-methyl-morpholin-4-yl]quinoxaline-5-carbonitrile] | 2 nM
3 | Cc1ccc(N2C[C@H](CN3CCN(c4ccnc(N5CC6(CNCCO6)C5)n4)CC3)O[C@H](C)C2)c2nccnc12 [Example 126, 2-[4-[4-[[(2S,6R)-6-methyl-4-(8-methylquinoxalin-5-yl)morpholin-2-yl]methyl]piperazin-1-yl]pyrimidin-2-yl]-5-oxa-2,8-diazaspiro[3.5]nonane] | 6 nM
4 | Cc1ccc(N2C[C@H](CN3CCN(c4ccnc(N5CCN[C@@H](C)C5)n4)CC3)O[C@H](C)C2)c2nccnc12 [Example 127, (2R,6S)-2-methyl-6-[[4-[2-[(3S)-3-methylpiperazin-1-yl]pyrimidin-4-yl]piperazin-1-yl]methyl]-4-(8-methylquinoxalin-5-yl)morpholine] | 9 nM
5 | Cc1ccc(N2C[C@H](CN3CCN(c4ccnc(N5CCN[C@H](C)C5)n4)CC3)O[C@H](C)C2)c2nccnc12 [Example 128, (2R,6S)-2-methyl-6-[[4-[2-[(3R)-3-methylpiperazin-1-yl]pyrimidin-4-yl]piperazin-1-yl]methyl]-4-(8-methylquinoxalin-5-yl)morpholine] | 12 nM
6 | Cc1ccc(N2C[C@H](CN3CCN(c4ccnc(N5C[C@H]6NCCO[C@@H]6C5)n4)CC3)O[C@H](C)C2)c2nccnc12 [Example 129, (4aR,7aR)-6-[4-[4-[[(2S,6R)-6-methyl-4-(8-methylquinoxalin-5-yl)morpholin-2-yl]methyl]piperazin-1-yl]pyrimidin-2-yl]-3,4,4a,5,7,7a-hexahydro-2H-pyrrolo[3,4-b][1,4]oxazine] | 7 nM
7 | Cc1ccc(N2C[C@H](CN3CCN(c4ccnc(N5CC(N)C5)n4)CC3)O[C@H](C)C2)c2nccnc12 [Example 130, 1-[4-[4-[[(2S,6R)-6-methyl-4-(8-methylquinoxalin-5-yl)morpholin-2-yl]methyl]piperazin-1-yl]pyrimidin-2-yl]azetidin-3-amine] | 8 nM
8 | [2H]c1ccc2c(N3C[C@H](CN4CC(c5ccc(N6C[C@H](OC)[C@@H](N)C6)cc5)C4)O[C@H](C)C3)ccc(C#N)c2n1 [Example 140, 5-[(2S,6R)-2-[[3-[4-[(3S,4S)-3-amino-4-methoxy-pyrrolidin-1-yl]phenyl]azetidin-1-yl]methyl]-6-methyl-morpholin-4-yl]-2-deuterio-quinoline-8-carbonitrile] | 25 nM

Other lines, results leading:

Row | IC50 | SMILES
9 | 4 nM | [2H]c1ccc2c(N3C[C@H](CN4CCN(c5nc(OC)cc(N6CC(C)(N)C6)n5)CC4)O[C@H](C)C3)ccc(C#N)c2n1 [Example 131, 5-[(2S,6R)-2-[[4-[4-(3-amino-3-methyl-azetidin-1-yl)-6-methoxy-pyrimidin-2-yl]piperazin-1-yl]methyl]-6-methyl-morpholin-4-yl]-2-deuterio-quinoline-8-carbonitrile]
10 | 16 nM | [2H]c1ccc2c(N3C[C@H](CN4CCN(c5ccc(N6CC(C)(N)C6)nc5)CC4)O[C@H](C)C3)ccc(C#N)c2n1 [Example 132, 5-[(2S,6R)-2-[[4-[6-(3-amino-3-methyl-azetidin-1-yl)-3-pyridyl]piperazin-1-yl]methyl]-6-methyl-morpholin-4-yl]-2-deuterio-quinoline-8-carbonitrile]
11 | 17 nM | [2H]c1ccc2c(N3C[C@H](CN4CCN(c5cnc(N6CC(C)(N)C6)cc5C)CC4)O[C@H](C)C3)ccc(C#N)c2n1 [Example 133, 5-[(2S,6R)-2-[[4-[6-(3-amino-3-methyl-azetidin-1-yl)-4-methyl-3-pyridyl]piperazin-1-yl]methyl]-6-methyl-morpholin-4-yl]-2-deuterio-quinoline-8-carbonitrile]
12 | 1 nM | [2H]c1ccc2c(N3C[C@H](CN4CCN(c5nc(C)cc(N6C[C@H](OC)[C@@H](N)C6)n5)CC4)O[C@H](C)C3)ccc(C#N)c2n1 [Example 134, 5-[(2S,6R)-2-[[4-[4-[(3S,4S)-3-amino-4-methoxy-pyrrolidin-1-yl]-6-methyl-pyrimidin-2-yl]piperazin-1-yl]methyl]-6-methyl-morpholin-4-yl]-2-deuterio-quinoline-8-carbonitrile]
13 | 1 nM | [2H]c1ccc2c(N3C[C@H](CN4CCN(c5nc(C)cc(N6CC(C)(N)C6)n5)CC4)O[C@H](C)C3)ccc(C#N)c2n1 [Example 135, 5-[(2S,6R)-2-[[4-[4-(3-amino-3-methyl-azetidin-1-yl)-6-methyl-pyrimidin-2-yl]piperazin-1-yl]methyl]-6-methyl-morpholin-4-yl]-2-deuterio-quinoline-8-carbonitrile]
14 | 1 nM | [2H]c1ccc2c(N3C[C@H](CN4CCN(c5nc(C)cc(N6CC(N)C6)n5)CC4)O[C@H](C)C3)ccc(C#N)c2n1 [Example 136, 5-[(2S,6R)-2-[[4-[4-(3-aminoazetidin-1-yl)-6-methyl-pyrimidin-2-yl]piperazin-1-yl]methyl]-6-methyl-morpholin-4-yl]-2-deuterio-quinoline-8-carbonitrile]
15 | 11 nM | [2H]c1ccc2c(N3C[C@H](CN4CCN(c5ccc(N6CC(C)(N)C6)nc5C)CC4)O[C@H](C)C3)ccc(C#N)c2n1 [Example 137, 5-[(2S,6R)-2-[[4-[6-(3-amino-3-methyl-azetidin-1-yl)-2-methyl-3-pyridyl]piperazin-1-yl]methyl]-6-methyl-morpholin-4-yl]-2-deuterio-quinoline-8-carbonitrile]
16 | 19 nM | [2H]c1ccc2c(N3C[C@H](CN4CC(c5ccc(N6CC(C)(N)C6)nc5)C4)O[C@H](C)C3)ccc(C#N)c2n1 [Example 138, 5-[(2S,6R)-2-[[3-[6-(3-amino-3-methyl-azetidin-1-yl)-3-pyridyl]azetidin-1-yl]methyl]-6-methyl-morpholin-4-yl]-2-deuterio-quinoline-8-carbonitrile]
17 | 13 nM | [2H]c1ccc2c(N3C[C@H](CN4CCN(c5ncc(N6CC(C)(N)C6)cc5C)CC4)O[C@H](C)C3)ccc(C#N)c2n1 [Example 139, 5-[(2S,6R)-2-[[4-[5-(3-amino-3-methyl-azetidin-1-yl)-3-methyl-2-pyridyl]piperazin-1-yl]methyl]-6-methyl-morpholin-4-yl]-2-deuterio-quinoline-8-carbonitrile]
18 | 9 nM | [2H]c1ccc2c(N3C[C@H](CN4CC(c5ccc(N6CC(C)(N)C6)cc5)C4)O[C@H](C)C3)ccc(C#N)c2n1 [Example 141, 5-[(2S,6R)-2-[[3-[4-(3-amino-3-methyl-azetidin-1-yl)phenyl]azetidin-1-yl]methyl]-6-methyl-morpholin-4-yl]-2-deuterio-quinoline-8-carbonitrile]
